The source made the active and inactive calls.
Tests used:
INS1 = assay: beta cell apoptosis inhibitors, cytokine rescue, dose response, luminescence, retest (AID 449756); assay type: functional, cell-based; conditions: Rattus norvegicus;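 further: cell death triggered by IL-1 beta plus TNF-alpha plus IFN-gamma mixture; protective hits raise ATP signal compared with cytokine alone wells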
Cytochrome P450 2D6 = Cytochrome P450 2D6 (Homo sapiens, UniProt P10635);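 further: CYP2D6 member of a cytochrome P450 panel assay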
Cytochrome P450 3A4 = Cytochrome P450 3A4 (Homo sapiens, UniProt P08684);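 further: CYP3A4 tested as one member of a cytochrome P450 panel screen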
[1] = biological target: T1, Rac GTPase-activating protein 1 (Homo sapiens, UniProt Q9H0H5); assay: MgcRacGAP GTPase-activating activity inhibitors, confirmation, biochemical, ADP Hunter fluorescence, primary and confirmatory (AID 624330); assay type: functional
T1 sequence (Q9H0H5 whole entry): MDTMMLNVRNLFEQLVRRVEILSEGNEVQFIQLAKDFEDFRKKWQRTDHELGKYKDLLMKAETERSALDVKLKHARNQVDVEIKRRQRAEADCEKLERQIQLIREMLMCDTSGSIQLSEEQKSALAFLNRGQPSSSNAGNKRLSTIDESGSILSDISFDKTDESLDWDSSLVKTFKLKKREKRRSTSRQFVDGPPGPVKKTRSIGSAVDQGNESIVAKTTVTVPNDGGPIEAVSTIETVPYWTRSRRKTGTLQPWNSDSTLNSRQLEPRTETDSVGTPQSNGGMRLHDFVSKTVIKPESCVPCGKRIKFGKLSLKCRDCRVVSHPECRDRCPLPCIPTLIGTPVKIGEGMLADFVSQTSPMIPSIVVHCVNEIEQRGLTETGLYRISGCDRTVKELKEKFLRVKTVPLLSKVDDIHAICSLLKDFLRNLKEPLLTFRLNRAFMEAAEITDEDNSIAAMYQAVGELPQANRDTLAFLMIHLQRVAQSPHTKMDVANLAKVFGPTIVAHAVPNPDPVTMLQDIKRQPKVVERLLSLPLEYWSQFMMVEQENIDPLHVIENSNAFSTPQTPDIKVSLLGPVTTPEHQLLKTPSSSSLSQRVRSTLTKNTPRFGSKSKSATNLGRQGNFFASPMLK

[2] = Luminescence Cell-Based Dose Retest to Confirm Inhibitors of Cancer Stem Cells. [Related pubchem assays (depositor defined):AID2717, AID2721]; assay type: functional; conditions: Homo sapiens
[3] = inhibitors of intracellular T. cruzi replication, confirmation, NIH3T3 host cells, beta-gal luminescence (AID 2044); assay type: functional, cell-based;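 further: intracellular parasites grown in NIH/3T3 mouse fibroblasts as host cells; luminescent beta-galactosidase reporter signal from transgenic T. cruzi replicating inside host cells; inhibitors lower the luminescence signal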
[4] = cytotoxicity toward NIH3T3 fibroblasts, dose response, counter-screen, cell-based, ATP luminescence, mouse fibroblasts (AID 2010); assay type: functional;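 further: cells exposed to compound for about 90 hours before reading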
Cytochrome P450 2C19 = Cytochrome P450 2C19 (Homo sapiens, UniProt P33261); assay: Cytochrome panel assay with activity outcomes. Panel member name: p450-cyp2c19 Compounds with AC50 equal or less than 10 uM are considered active; assay type: functional
Chain of Cytochrome P450 2C19 (P33261 whole entry): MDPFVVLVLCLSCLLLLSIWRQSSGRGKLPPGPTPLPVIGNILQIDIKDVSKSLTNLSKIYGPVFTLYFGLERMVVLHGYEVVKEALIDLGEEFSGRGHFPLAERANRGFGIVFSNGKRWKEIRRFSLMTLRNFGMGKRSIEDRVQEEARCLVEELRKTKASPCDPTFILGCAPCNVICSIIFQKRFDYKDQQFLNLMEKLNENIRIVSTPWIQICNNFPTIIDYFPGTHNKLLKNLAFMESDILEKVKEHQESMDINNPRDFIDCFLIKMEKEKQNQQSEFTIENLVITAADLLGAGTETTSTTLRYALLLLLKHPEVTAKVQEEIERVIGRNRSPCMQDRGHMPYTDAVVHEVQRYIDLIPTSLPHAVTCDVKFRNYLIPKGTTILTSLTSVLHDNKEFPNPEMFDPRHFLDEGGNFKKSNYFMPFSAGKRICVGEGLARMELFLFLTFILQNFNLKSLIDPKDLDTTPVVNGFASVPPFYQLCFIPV

Chain of Cytochrome P450 3A4 (P08684 whole entry): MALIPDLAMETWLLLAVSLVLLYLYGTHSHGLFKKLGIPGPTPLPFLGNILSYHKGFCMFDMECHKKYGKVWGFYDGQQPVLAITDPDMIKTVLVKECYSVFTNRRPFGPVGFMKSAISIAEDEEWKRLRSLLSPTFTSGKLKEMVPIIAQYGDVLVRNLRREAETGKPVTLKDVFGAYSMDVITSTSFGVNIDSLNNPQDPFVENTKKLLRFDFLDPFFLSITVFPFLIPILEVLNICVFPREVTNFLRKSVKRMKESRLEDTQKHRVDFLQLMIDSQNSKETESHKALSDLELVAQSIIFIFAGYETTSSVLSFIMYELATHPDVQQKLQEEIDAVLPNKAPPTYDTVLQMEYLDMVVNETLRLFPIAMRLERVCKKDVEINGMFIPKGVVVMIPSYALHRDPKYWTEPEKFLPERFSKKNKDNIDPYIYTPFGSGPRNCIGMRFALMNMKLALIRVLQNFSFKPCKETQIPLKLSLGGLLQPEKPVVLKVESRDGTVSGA
Chain of Cytochrome P450 2D6 (P10635 whole entry): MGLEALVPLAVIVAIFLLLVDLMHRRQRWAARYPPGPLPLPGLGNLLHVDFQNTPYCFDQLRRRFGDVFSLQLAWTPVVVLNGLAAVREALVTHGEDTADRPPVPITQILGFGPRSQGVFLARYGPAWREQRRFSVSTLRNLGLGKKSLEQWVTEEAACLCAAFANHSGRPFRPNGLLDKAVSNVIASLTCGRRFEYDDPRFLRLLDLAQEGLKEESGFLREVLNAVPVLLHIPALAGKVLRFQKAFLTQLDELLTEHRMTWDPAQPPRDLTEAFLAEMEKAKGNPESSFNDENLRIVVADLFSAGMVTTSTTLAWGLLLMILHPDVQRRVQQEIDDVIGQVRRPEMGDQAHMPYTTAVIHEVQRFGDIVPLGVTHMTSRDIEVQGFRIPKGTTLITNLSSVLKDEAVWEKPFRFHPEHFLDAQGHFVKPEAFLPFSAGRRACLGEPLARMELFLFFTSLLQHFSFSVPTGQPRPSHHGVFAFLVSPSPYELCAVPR

With `O=C(NC1(Cc2ccccc2)CCN(CCCc2ccccc2)C1=O)c1ccccc1` (stereo not given) as the compound, how does the AC50 (INS1) read?
The AC50 was 2.75 µM (active).

With `COCC(=O)N1CCC2(CCCN(c3cccc(-c4ccccc4)c3)C2)CC1` as the compound, how does the AC50 (Cytochrome P450 2D6) read?
Its AC50 is 39.8 µM (inconclusive).

What about the AC50 (Cytochrome P450 3A4) of the same compound?
Its AC50 is 12.6 µM (inconclusive).

Which AC50 (Cytochrome P450 3A4) does the source give for `CCNS(=O)(=O)c1ccc(NC(=O)c2cc(C(F)(F)F)nn2C)cc1` here?
Its AC50 is 6.31 µM (inconclusive).

Which IC50 [1] does the source give for `COC(=O)c1ccc(C(=O)OCCCc2nc3cc(N)ccc3[nH]2)cc1` here?
Its IC50 is 110 µM (active).

For `CCC(=O)Nc1nc(C)c(-c2csc(Nc3cccc(O)c3)n2)s1`, which AC50 [2] is on record?
Its AC50 is 0.188 µM (active).

With `COc1cc(Br)c(/C=C/c2ccc3cccc(O)c3n2)cc1OC` as the compound, how does the EC50 [3] read?
The EC50 was 0.831 µM (active).

And the EC50 [4]?
The EC50 was > 60 µM (not active).

What does the source list for `CN(CC(=O)Nc1ccc(S(=O)(=O)N2CCCC2)cc1)Cc1ccc(Cl)cc1`?
EC50 [3]: 1.58 µM (active); EC50 [4]: > 60 µM (not active)

With `CCc1cc(-c2n[nH]cc2-c2nc3ccccc3n2C)c(O)cc1O` as the compound, how does the IC50 [1] read?
The IC50 was 83.6 µM (active).

For `Cc1nc2cnc(N3CCNCC3)nc2n(Cc2cccs2)c1=O`, which AC50 (Cytochrome P450 2D6) is on record?
The AC50 was 12.6 µM (inconclusive).

Which AC50 (Cytochrome P450 3A4) does the source give for `COc1ncc2nc(-c3ccccc3)c(=O)n(C[C@H]3CCCO3)c2n1` here?
The AC50 was 25.1 µM (inconclusive).

Which IC50 [1] does the source give for `CCOc1cc(N2CCOCC2)c(OCC)cc1NC(=O)c1ccc(C)s1` here?
The IC50 was 70.8 µM (active).

Which EC50 [3] does the source give for `O=C(NC(=S)NCc1cccnc1)c1cccc2ccccc12` here?
The EC50 was 0.505 µM (active).

What about the EC50 [4] of the same compound?
Its EC50 is > 60 µM (not active).

Which AC50 (INS1) does the source give for `CN(C)c1ccc(/C=C(\C#N)C(=O)OCC(=O)N(C)C2CCS(=O)(=O)C2)cc1` (stereo not given) here?
Its AC50 is > 260 µM (inactive).

Which AC50 [2] does the source give for `Nc1ccc(N2CCN(Cc3ccccc3Cl)CC2)c(Cl)c1` here?
The AC50 was 2.45 µM (active).

For `Clc1ccc(Cl)c(OCCCCN2CCNCC2)c1`, which EC50 [3] is on record?
The EC50 was 3.42 µM (active).

And the EC50 [4]?
Its EC50 is 9.24 µM (active).

What about the AC50 [2] of the same compound?
The AC50 was 2.41 µM (active).

With `Cc1ccnc(Nc2nc(-c3ccc(O)cc3)cs2)c1` as the compound, how does the IC50 [1] read?
The IC50 was 105 µM (active).

For `COc1cccc(C(=O)N(C)c2nnc(-c3ccncc3)s2)c1`, which AC50 (Cytochrome P450 3A4) is on record?
Its AC50 is 6.31 µM (inconclusive).

With `CSc1nc2ccccc2cc1/C=C(\C#N)c1ccc(Cl)cc1Cl` as the compound, how does the AC50 (Cytochrome P450 2D6) read?
Its AC50 is 1.58 µM (inconclusive).

Which EC50 [3] does the source give for `O=C(NCCCN1CCCC1=O)c1ccc([N+](=O)[O-])s1` here?
Its EC50 is 0.534 µM (active).

And the EC50 [4]?
The EC50 was > 30 µM (not active).

For `O=C(OCc1nc2ccccc2s1)c1ccc(Br)s1`, which AC50 (Cytochrome P450 3A4) is on record?
Its AC50 is 25.1 µM (inconclusive).

Which EC50 [3] does the source give for `COc1cccc(NC(=O)Nc2ccc(C)c(Cl)c2)c1` here?
The EC50 was 2.41 µM (active).

And the EC50 [4]?
The EC50 was > 30 µM (not active).

With `CCC(CO)Oc1cc(NCc2ccc(C)c(C)c2)c2ncn(C(C)C)c2c1` (stereo not given) as the compound, how does the AC50 (INS1) read?
Its AC50 is 5.86 µM (active).

With `CCN(CC)c1ccc(NC(=O)COc2ccc(-n3cnnn3)cc2)cc1` as the compound, how does the IC50 [1] read?
The IC50 was 63 µM (active).

With `CCC(CO)Oc1cc(NCc2ccc(Cl)cc2Cl)c2ncn(C(C)C)c2c1` (stereo not given) as the compound, how does the AC50 [2] read?
Its AC50 is 8.14 µM (active).

For `CCc1ccc(-c2csc(NC(=O)C3CCCO3)c2C(=O)OC(C)C)cc1` (stereo not given), which AC50 (Cytochrome P450 3A4) is on record?
The AC50 was 28.2 µM (inconclusive).

For `CC(=O)c1ccc(NC(=O)C(Cc2ccccc2)NC(=O)c2ccco2)cc1` (stereo not given), which AC50 (Cytochrome P450 3A4) is on record?
The AC50 was 28.2 µM (inconclusive).

Which IC50 [1] does the source give for `Cc1cc(Cl)cc2sc(S)nc12` here?
The IC50 was 85.4 µM (active).

With `COc1cc(C(C)n2nnc3ccccc32)ccc1O` (stereo not given) as the compound, how does the IC50 [1] read?
The IC50 was 108 µM (active).

For `C=C[C@]1(C)C[C@H](OC(=O)CO)[C@]2(C)C3C(=O)CC[C@]3(CC[C@H]2C)[C@H](C)[C@H]1O` (stereo not given in full), which AC50 (Cytochrome P450 3A4) is on record?
The AC50 was 3.16 µM (inconclusive).

What does the source list for `Cc1[nH]n(C(C)(C)C)c(=O)c1Sc1ccc(Cl)cc1`?
EC50 [3]: 16.3 µM (active); EC50 [4]: > 60 µM (not active)

Which results are given for `O=C(Cn1cnc([N+](=O)[O-])n1)N/N=C/c1ccc2ccccc2c1`?
EC50 [3]: 0.333 µM (active); EC50 [4]: > 60 µM (not active)

Which EC50 [3] does the source give for `C=CCc1cccc(/C=N/NC(=O)c2ccccc2OC)c1O` here?
Its EC50 is 2.2 µM (active).

And the EC50 [4]?
Its EC50 is > 60 µM (not active).

What about the AC50 (INS1) of the same compound?
Its AC50 is 3.06 µM (active).

For `C/C(Cn1cnc([N+](=O)[O-])n1)=N/NC(=O)COc1ccccc1Cl`, which EC50 [3] is on record?
The EC50 was 0.154 µM (active).

And the EC50 [4]?
Its EC50 is > 60 µM (not active).

Which AC50 [2] does the source give for `Cc1ccc(/C=N/NC(=O)CNC(=O)COc2ccccc2)o1` here?
Its AC50 is > 195 µM (inactive).

With `CC(=O)c1ccc(OCc2cc(C(=O)N3CCCCC3c3cccnc3)no2)cc1` (stereo not given) as the compound, how does the AC50 (INS1) read?
Its AC50 is 14.3 µM (active).

For `COc1ccccc1N1CCNCC1`, which AC50 (Cytochrome P450 2C19) is on record?
Its AC50 is “inconclusive”.

With `O=C(O)Cc1c[nH]cn1` [IMIDAZOLE ACETIC ACID] as the compound, how does the AC50 (Cytochrome P450 3A4) read?
The AC50 was 31.6 µM (inconclusive).

— ChEMBL document CHEMBL1201862, “PubChem BioAssay data set” (2004)
